Reference: patent US20200000772A1, “CENICRIVIROC COMBINATION THERAPY FOR THE TREATMENT OF FIBROSIS” (Tobira Therapeutics, Inc., priority 2014, published 2020)
Entries after “also recorded” stand apart in the source; their conditions may differ.

How the values were obtained:
[1] = CVC plasma exposures, healthy volunteers vs HIV-infected subjects; type: in vivo, human; conditions: same dosing conditions; Studies 652-1-111, 652-1-110, 652-2-202
[2] = system: STAM™ mouse model of Non-alcoholic Steatohepatitis; test: STAM mouse model of NASH, Part 1: anti-NASH/fibrosis effects at week 9; type: in vivo, mice; conditions: for Body weight / Liver-to-body weight ratio / Collagen Type 1 mRNA expression level (liver, quantitative RT-PCR) / MCP-1 mRNA expression level (liver, quantitative RT-PCR) / TIMP-1 mRNA expression level (liver, quantitative RT-PCR): mean ± SD; for Collagen Type 1 mRNA expression level (liver, quantitative RT-PCR) / MCP-1 mRNA expression level (liver, quantitative RT-PCR) / TIMP-1 mRNA expression level (liver, quantitative RT-PCR): Vehicle 1.00
Description: NASH was induced in male mice by a single injection of 200 μg streptozotocin 2 days after birth (causing impaired glucose control), followed by a high fat diet from 4 weeks of age. […] Animals were sacrificed at 9 weeks of age, and biochemical, gene expression, and histologic evaluations of the liver were conducted. […] Group 2-Cenicriviroc 20 mg/kg (CVC-low): […] [table]

CCR5 = CCR5 (Homo sapiens, UniProt P51681); test: CCR5 antagonism in in vitro, ex vivo and clinical studies; conditions: ex vivo, Studies 652-2-201 and 652-2-202
CCR5, sequence (P51681 whole entry): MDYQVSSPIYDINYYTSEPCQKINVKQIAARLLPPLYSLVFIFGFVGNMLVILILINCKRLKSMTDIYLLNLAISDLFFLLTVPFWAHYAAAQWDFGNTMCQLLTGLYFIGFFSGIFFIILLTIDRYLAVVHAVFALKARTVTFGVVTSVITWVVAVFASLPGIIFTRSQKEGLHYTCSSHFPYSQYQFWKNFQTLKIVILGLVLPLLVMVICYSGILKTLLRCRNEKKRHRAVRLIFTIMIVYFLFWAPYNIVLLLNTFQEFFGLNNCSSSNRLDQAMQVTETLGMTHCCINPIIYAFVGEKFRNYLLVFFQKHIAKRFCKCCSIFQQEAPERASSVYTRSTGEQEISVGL

[3] = Tissue distribution in rodents; type: in vivo
Excerpt: Infiltration of various immune cell populations, resulting in inflammation, is a central pathogenic feature following acute- and chronic liver injury. Chronic liver inflammation leads to continuous hepatocyte injury which can lead to fibrosis, cirrhosis, ESLD, and HCC. Interactions between intra-hepatic immune cells lead to increased activation and migration of Kupffer cells and HSCs and are critical events for developing liver fibrosis. Additionally, there is increasing evidence of the role of CCR2 and CCR5 in the pathogenesis of liver fibrosis. These members of the C-C chemokine family are expressed by pro-fibrogenic cells including pro-inflammatory monocytes and macrophages, Kupffer cells, and HSCs. CCR2 signaling plays an important role in the pathogenesis of renal fibrosis through regulation of bone marrow-derived fibroblasts. CCR2- and CCR5-positive monocytes as well as CCR5-positive T lymphocytes are attracted by locally released MCP-1 and RANTES, and can contribute to chronic interstitial inflammation in the kidney. […] Disruption of the intestinal microbiota and its downstream effects on the gut-liver axis both play an important role in metabolic disorders such as obesity, non-alcoholic fatty liver disease (NAFLD) and non-alcoholic steatohepatitis (NASH).

[4] = system: STAM™ mouse model of Non-alcoholic Steatohepatitis; test: STAM mouse model of NASH, Part 2: anti-HCC effects at week 18; conditions: for Body weight / Liver-to-body weight ratio: mean ± SD; for mice that died (survival analysis): 6 to 18 weeks
Description: Group 1-Vehicle: Eighteen NASH mice were orally administered vehicle at a volume of 10 mL/kg twice daily (9:00 and 19:00) from 6 weeks of age.

[5] = Phase 1 CVC and pioglitazone co-administration PK and safety study; type: in vivo, healthy subjects; conditions: CVC 150 mg QD and PGZ 45 mg QD
Description: Plasma samples were collected prior to each dose and over 24 hours at the end of each treatment period. Cmax, Cmin, tmax, and AUC0-tau were determined using non-compartmental methods. Geometric means, GMRs and CIs were calculated.

CCR2 = CCR2 (Homo sapiens, UniProt P41597); test: CCR2 antagonism in in vitro, ex vivo and clinical studies; conditions: ex vivo, Studies 652-2-201 and 652-2-202
CCR2, sequence (P41597 whole entry): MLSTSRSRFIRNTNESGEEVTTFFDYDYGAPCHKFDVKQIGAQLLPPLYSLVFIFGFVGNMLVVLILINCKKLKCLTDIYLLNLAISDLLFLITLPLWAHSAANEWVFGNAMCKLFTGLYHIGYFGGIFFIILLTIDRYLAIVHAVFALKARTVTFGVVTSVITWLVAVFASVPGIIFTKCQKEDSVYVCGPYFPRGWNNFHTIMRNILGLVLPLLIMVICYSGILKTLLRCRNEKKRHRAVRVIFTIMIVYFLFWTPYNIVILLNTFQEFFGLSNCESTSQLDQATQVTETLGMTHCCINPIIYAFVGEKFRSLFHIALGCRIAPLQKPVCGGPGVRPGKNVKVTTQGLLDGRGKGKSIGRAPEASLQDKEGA
Excerpt: Clinical evidence of CCR2 and CCR5 antagonism was established by measuring changes from baseline in plasma MCP-1 (a ligand of CCR2) concentrations and changes in plasma HIV-RNA (CCR5 co-receptor required for HIV entry), respectively, in these 2 Phase 2 Studies.

[6] = system: thioacetamide (TAA)-induced hepatic fibrosis; test: Rat model of thioacetamide-induced liver fibrosis and cirrhosis; type: in vivo, Sprague-Dawley rats; conditions: first 8 weeks
Description: Fibrosis was induced in male Sprague-Dawley rats by intraperitoneal administration of TAA 150 mg/kg 3 times/week for 8 weeks. […] Biochemical, gene expression and histologic evaluations of the liver were conducted.

[7] = system: adults with CCR5 tropic HIV-1; test: Study 202 post-hoc APRI and FIB-4 fibrosis index scores; type: in vivo, human
Description: APRI and FIB-4 scores were calculated. Change in score category from baseline (BL) to Weeks 24 and 48 was assessed in patients with non-missing data. Correlations between changes from BL in APRI and FIB-4 scores, and MCP-1 (CCR2 ligand) and sCD14 (inflammatory biomarker) levels were evaluated.

HIV-1 infected subjects = test: Study 202 efficacy and tolerability; type: in vivo, human; conditions: CVC 100 mg and 200 mg for up to 48 weeks, 115 subjects
[8] = Chronic (3- and 9-month) monkey toxicity studies; type: in vivo
[9] = CVC-high 100 mg/kg/day, week 9, listed as Cenicriviroc
[10] = CVC-high 100 mg/kg/day, week 9, n = 6
[11] = CVC-low 20 mg/kg/day, week 9, listed as Cenicriviroc
[12] = CVC-low 20 mg/kg/day, week 9, n = 6
[13] = CVC-high 100 mg/kg/day, week 18
[14] = CVC-high 100 mg/kg/day, week 18, listed as Cenicriviroc
[15] = CVC-low 20 mg/kg/day, week 18, listed as Cenicriviroc

## CCCCOCCOc1ccc(-c2ccc3c(c2)/C=C(/C(=O)Nc2ccc([S@@+]([O-])Cc4cncn4CCC)cc2)CCCN3CC(C)C)cc1 [CVC, (S)-8-[4-(2-Butoxyethoxy)phenyl]-1-isobutyl-N-(4-{[(1-propyl-1H-imidazol-5-yl)methyl]sulfinyl}phenyl)-1,2,3,4-tetrahydro-1-benzazocine-5-carboxamide]
[1]
  CVC plasma exposures in non-HIV infected healthy volunteers compared to HIV-infected subjects: higher
[2]; CVC treatment 20 and 100 mg/kg/day, 9 weeks of age
  collagen type 1 mRNA in whole liver lysates, decrease (real-time RT-PCR): 27-37%
[2]; CVC-high 100 mg/kg/day, week 9
  Body weight: 18.7 ± 0.9 g
  Liver-to-body weight ratio: 7.0±0.8%
  Collagen Type 1 mRNA expression level (liver, quantitative RT-PCR): 0.73±0.04
  MCP-1 mRNA expression level (liver, quantitative RT-PCR): 1.00±0.53
  TIMP-1 mRNA expression level (liver, quantitative RT-PCR): 0.80±0.20
[2]; [9]
  Collagen Type 1 mRNA expression level (liver, quantitative RT-PCR): 0.73 ± 0.04
  MCP-1 mRNA expression level (liver, quantitative RT-PCR): 1.00 ± 0.53
  TIMP-1 mRNA expression level (liver, quantitative RT-PCR): 0.80 ± 0.20
  Body weight: 18.7 ± 0.9 g
  Liver-to-body weight ratio: 7.0 ± 0.8%
[2]; [10]
  Hepatocyte ballooning score 0 (None), number of mice: 1
  Hepatocyte ballooning score 1 (Few balloon cells), number of mice: 2
  Hepatocyte ballooning score 2 (Many cells/prominent ballooning), number of mice: 3
  Lobular inflammation score 1 (<2 foci/200x), number of mice: 3
  Lobular inflammation score 2 (2-4 foci/200x), number of mice: 3
  Steatosis score 0 (<5%), number of mice: 1
  Steatosis score 1 (5-33%), number of mice: 5
[2]; CVC-low 20 mg/kg/day, week 9
  Body weight: 19.5 ± 2.0 g
  Liver-to-body weight ratio: 6.9±1.0%
  Collagen Type 1 mRNA expression level (liver, quantitative RT-PCR): 0.63±0.10
  TIMP-1 mRNA expression level (liver, quantitative RT-PCR): 0.75±0.32
[2]; [11]
  Collagen Type 1 mRNA expression level (liver, quantitative RT-PCR): 0.63 ± 0.10
  TIMP-1 mRNA expression level (liver, quantitative RT-PCR): 0.75 ± 0.32
  Body weight: 19.5 ± 2.0 g
  Liver-to-body weight ratio: 6.9 ± 1.0%
[2]; [12]
  Hepatocyte ballooning score 1 (Few balloon cells), number of mice: 3
  Hepatocyte ballooning score 2 (Many cells/prominent ballooning), number of mice: 3
  Lobular inflammation score 1 (<2 foci/200x), number of mice: 3
  Lobular inflammation score 2 (2-4 foci/200x), number of mice: 3
  Steatosis score 1 (5-33%), number of mice: 6
[2]; CVC-low and CVC-high, until week 9
  general condition throughout the treatment period: None of the animals in the present study showed deterioration in general condition
CCR5
  antagonism of CCR5: potent and concentration-dependent antagonism
[3]
  tissue distribution: high distribution in the liver, mesenteric lymph node, and intestine
[4]; CVC treatment groups, week 18
  effect on NASH-derived HCC: not observed
[4]; [13]
  Body weight: 20.8 ± 2.7 g
  Liver-to-body weight ratio: 8.8±2.3%
[4]; [14]
  Body weight: 20.8 ± 2.7 g
  Liver-to-body weight ratio: 8.8 ± 2.3%
[4]; CVC-high group
  mice that died (survival analysis): Five out of twelve mice died
[4]; CVC-high group, week 18
  mice with GS-positive nodules: seven out of seven mice
  mice with HCC lesions (HE staining): six out of seven mice
[4]; CVC-low 20 mg/kg/day, week 18
  Body weight: 22.9 ± 3.5 g
  Liver-to-body weight ratio: 8.3±2.8%
[4]; [15]
  Body weight: 22.9 ± 3.5 g
  Liver-to-body weight ratio: 8.3 ± 2.8%
[4]; CVC-low group
  mice that died (survival analysis): Six out of twelve mice died
[4]; CVC-low group, week 18
  mice with GS-positive nodules: five out of six mice
  mice with HCC lesions (HE staining): five out of six mice
[5]
  Cmin on co-administration: remained unchanged
  steady-state Cmax and AUC0-tau on co-administration: modest decrease
CCR2
  antagonism of CCR2: potent and concentration-dependent antagonism
[6]; Group 1a: CVC 30 mg/kg/day concurrently with TAA
  reduction of fibrosis by collagen morphometry: 49%
[6]; Group 1b: CVC 100 mg/kg/day concurrently with TAA
  reduction of fibrosis by collagen morphometry: 38%
[7]; Baseline
  subjects with APRI 0.5-1.5: 14%
  subjects with APRI <0.5: 84%
  subjects with APRI >1.5: 2%
  subjects with FIB-4 1.45-3.25: 17%
  subjects with FIB-4 <1.45: 82%
  subjects with FIB-4 >3.25: 1%
[7]; Week 24
  subjects with APRI 0.5-1.5: 7%
  subjects with APRI <0.5: 93%
  subjects with APRI decreased 1 category from baseline: 14%
  subjects with FIB-4 1.45-3.25: 7%
  subjects with FIB-4 <1.45: 93%
  subjects with FIB-4 decreased 1 category from baseline: 13%
[7]; Week 48
  subjects with APRI 0.5-1.5: 8%
  subjects with APRI <0.5: 91%
  subjects with APRI >1.5: 1%
  subjects with APRI decreased 1 category from baseline: 10%
  subjects with FIB-4 1.45-3.25: 5%
  subjects with FIB-4 <1.45: 94%
  subjects with FIB-4 >3.25: 1%
  subjects with FIB-4 decreased 1 category from baseline: 14%
[7]; pooled data for CVC 100 mg and 200 mg
  subjects with improvements in APRI and FIB-4 scores over time: ≥ 10%
HIV-1 infected subjects
  tolerability in HIV-1 infected subjects: generally well tolerated; also recorded: effective and well tolerated
[8]; 1000 mg/kg/day, chronic (3- and 9-month) monkey toxicity studies
  plasma MCP-1 levels, fold over controls: ~5 fold
[8]; high dose of 1000 mg/kg/day
  indication of inflammation in clinical pathology parameters or any tissue incl. liver: No indication of inflammation
